Measured values taken from article PMC10497945, “Dual-targeting peptides@PMO, a mimetic to the pro-apoptotic protein Smac/DIABLO for selective activation of apoptosis in cancer cells” (Frontiers in Pharmacology, 2023).

Legend:
HeLa S-3 cells = experiment: Resazurin reduction viability assay; settings: HeLa, 1, 5, and 25 µM, 48 h, n = 3
Protocol: For the resazurin-to-resorufin reduction assays, cells were grown in a 96-well plate for 120 min at 37 °C with resazurin solution (0.15 mg/ml) (Sigma-Aldrich, Milan, Italy). The fluorescence of resorufin was quantified on a PerkinElmer EnSpire 2,300 Multilabel Reader (ex 550 nm/em 590 nm). For the Apo-ONE assay, 25,000 cells were seeded in a 96-well white polystyrene microplate (Corning, United States of America). After 24 h, cells were treated for 36 h with oxaliplatin and oxaliplatin+SS35. Cells were then lysed and subjected to caspase-3/7 (DEVDase) activity assays by using the Apo-ONE Homogeneous Caspase-3/7 Assay (Promega, Madison, United States of America) according to the manufacturer’s instructions. After 30 min of incubation, fluorescence was recorded in the linear phase of the kinetics with a Synergy H1 plate reader (BioTek, Winooski, United States of America). For the trypan blue viability assay, cells were harvested, pelleted at 1500 rcf, and incubated for 5 min with a PBS/0.4% Trypan Blue solution (Gibco). At least 300 cells were counted for each condition.
First, Ht-29 and HeLa cells were treated with increasing doses (0.02, 0.04, and 0.06 μg/ml) of SS28, SS35, and SS36 for 48 h, and cell viability was assessed by resazurin reduction assays (Figure 6A). […]

Ht-29 cells = experiment: Resazurin reduction viability assay; format: cell-based, human; settings: Ht-29, 1, 5, and 25 µM, 48 h, n = 3
[1] = Determination of PMO peptide functionalization by absorbance; format: physicochemical; settings: UV absorbance in ethanol, Phe (257 nm) and Fmoc-Ala (267 nm) calibration curves, PMO baseline subtracted; estimated
Protocol: To quantify the amounts of peptides on the PMO, a Varian Cary 50 bio benchtop spectrophotometer in the range of 200–800 nm with a 1-nm step was used ([Faura et al. 2021]). The calibration curves were determined by preparing five solutions at known concentrations of Phenylalanine and Fmoc-Alanine used as standards. Briefly, a stock solution of 5 mM Phe in absolute ethanol was diluted to the final concentrations of 0.2 mM, 0.5 mM, […], 2 mM, and 5 mM. A standard solution of 52.7 μM Fmoc-Alanine (Ala) in absolute ethanol was diluted to the concentrations of 20 μM, 10 μM, 5 μM, and 2 μM. The fluorescence signals were recorded for Phenylalanine (Phe: λex 240 nm and λem 282 nm) ([Lakowicz, 2006]) and Fmoc-Ala (λex […] and λem 280 nm) ([Pappas et al., 2014]) and plotted against their respective sample concentrations. […]
The absorbance values of peptides linked to PMOs were adjusted to account for potential interference caused by PMOs, which can scatter or absorb light in the visible and UV ranges, leading to inaccuracies in absorbance measurements of chromophores. The absorbance spectrum of PMO was subtracted from the absorbance spectrum of the sample containing the peptide@PMO. In the region of absorption of the chromophore, we observed a linear and well-defined relationship between the absorbance of PMO and wavelength. […]

Compound	cytotoxicity of free peptide compared with nanoparticle-conjugated peptide (HeLa S-3 cells)	cytotoxicity of free peptide compared with nanoparticle-conjugated peptide (Ht-29 cells)	Peptide/PMO: peptide amount binding for each milligram of PMO [1] [mg]
N=C(N)NCCC[C@@H]1NC(=O)[C@H](CCCCN)NC(=O)[C@@H](Cc2ccccc2)NC(=O)[C@H](CC(=O)O)NC(=O)CNC1=O [p28, cyclic[RGDfK]]	significantly attenuated	significantly attenuated	
FmocAVPI@PMO [Fmoc-protected AVPI peptide conjugated to PMO, apparently the precursor of SS36]			0.074
